Laboratory results published in the NIST ThermoML archive (doi:10.1016/j.jct.2015.09.028).

Experiments:
[1] = 93 kPa, Liquid; for viscosity: Concentric cylinders viscometry; for mass density: Vibrating tube method
[2] = molar heat capacity at constant pressure; conditions: Liquid, Flow calorimetry

c1ccc(Oc2ccccc2)cc1 [diphenyl ether]
[1]
Conditions	mass density [kg/m3]	viscosity [mPa·s]
303.15 K	1065.5	3.33
308.15 K	1061.2	2.96
313.15 K	1056.9	2.65
323.15 K	1048.2	2.17
333.15 K	1039.6	1.82
343.15 K	1030.9	1.54
353.15 K	1022.3	1.33
363.15 K	1013.7	1.16
373.15 K	1005.2	1.03

molar heat capacity at constant pressure [J/K/mol], [2]
Conditions	100 kPa	5000 kPa	10000 kPa	15000 kPa	20000 kPa	25000 kPa
313.15 K	274.37	273.52	273.18	272.5	272.16	–
333.15 K	286.97	285.95	284.93	284.59	283.39	282.71
353.15 K	299.05	298.03	296.84	296.33	295.48	294.63
